Measurements: PubChem BioAssay AID489040 (Sanford-Burnham Center for Chemical Genomics, 2010)
Active and inactive are the calls of the source.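 How the source made its calls: active means mean half-maximal activating concentration from the dose-response fit at or below a set limit; inactive means the rest.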

Molecular target: CHO-XBP1 luciferase reporter, IRE1-XBP1 UPR activation
Assay: activators of IRE1-XBP1 UPR arm, dose response, counter-screen for apoptotic UPR arm activators, CHO-XBP1 cells, luminescence (AID 489040);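 further: reporter read after six hours of compound exposure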

## COc1cc(/C=C/C(=O)N2C(=O)c3cccc(N)c3C2=O)cc(OC)c1OC
  EC50: > 80 µM (inactive)

## CCN(CC)c1ccc(/C=C2\C(=O)N(c3nnc(C)c(=O)[nH]3)N=C2C)cc1
  EC50: > 80 µM (inactive)

## COc1ccc(C2OC34CCCCC3C(C#N)(C#N)C2(C#N)C(=N)O4)cc1 (stereo not given)
  EC50: > 80 µM (inactive)

## O=C(/C(=C\c1ccccc1)c1nc2ccccc2[nH]1)c1ccc(Cl)cc1
  EC50: > 80 µM (inactive)

## Oc1ccc(CN2CCN(c3ccccc3)CC2)c2cccnc12
  EC50: > 80 µM (inactive)

## O=C1C(Cl)=C(NC(=O)c2ccccc2)C(=O)C(Cl)=C1NC(=O)c1ccccc1
  EC50: > 80 µM (inactive)

## CCCCCCCCCn1c2c(c(=N)c3c1CCC3)CCC2
  EC50: > 80 µM (inactive)

## CCCCC(CC)CN=C(N)NC(N)=NCCCCCCN=C(N)NC(N)=NCC(CC)CCCC (stereo not given)
  EC50: > 80 µM (inactive)

## Cc1cccc(Nc2nc3c(S(=O)(=O)c4ccccc4)nnn3c3ccccc23)c1C
  EC50: inactive

## Cc1cccc2sc(NC(=O)c3cc(S(=O)(=O)N(C)C)ccc3N3CCCC3)nc12
  EC50: 5.3 µM

## O=C(N/N=C/c1ccccn1)c1ccc(Cl)c(Cl)c1
  EC50: > 80 µM (inactive)

## Cc1ccccc1NC(=O)c1ccc(N/N=C/c2ccccc2O)c([N+](=O)[O-])c1
  EC50: > 80 µM (inactive)

## CCOc1ccc(N2C(=O)CC(N(O)c3ccccc3)C2=O)cc1 (stereo not given)
  EC50: > 80 µM (inactive)

## CSc1nnc(NC(=O)c2nc(S(=O)(=O)Cc3cccc(C)c3)ncc2Cl)s1
  EC50: > 80 µM (inactive)

## O=C(CSc1cccc2cccnc12)N/N=C/c1cccnc1
  EC50: > 80 µM (inactive)

## CCN(CC)c1ccc(C=C2C(=O)NC(=S)NC2=O)cc1
  EC50: > 80 µM (inactive)

## O=C(CCl)N1N=C(c2cccs2)CC1c1ccco1 (stereo not given)
  EC50: > 80 µM (inactive)

## CCOC(=O)CSc1cccc2cccnc12
  EC50: > 80 µM (inactive)

## COc1ccc2c(C(=O)CCl)c[nH]c2c1
  EC50: > 80 µM (inactive)

## CCc1ccc(N2C(=O)NC(=O)/C(=C\C=C\c3ccco3)C2=O)cc1
  EC50: > 80 µM (inactive)

## CCCCC1CCC(C(=O)N(CCCC)c2c(N)n(CCCC)c(=O)[nH]c2=O)CC1 (stereo not given)
  EC50: > 80 µM (inactive)

## COc1ccccc1NC(=O)c1cnc(SCC(=O)NCC2CCCO2)n(C)c1=O (stereo not given)
  EC50: > 80 µM (inactive)

## Cc1nn(Cc2c(Cl)cccc2Cl)c(C)c1NC(=O)c1cn(-c2ccccc2)nc1-c1ccccc1
  EC50: > 80 µM (inactive)

## COc1ccc(C2Nc3ccc4ccccc4c3-c3c2c(=O)oc2ccccc32)cc1 (stereo not given)
  EC50: 9.62 µM

## Cc1cccc(Cn2cc(/C=C/[N+](=O)[O-])c3ccccc32)c1
  EC50: > 80 µM (inactive)

## CC1CCC/C=C/C2CC(O)CC2C(O)/C=C/C(=O)O1 (stereo not given)
  EC50: > 80 µM (inactive)

## COc1ccc(-n2c(C)cc(C(=O)CCl)c2C)cc1
  EC50: 4.68 µM

## Cc1cccc(C)c1NC(=O)C(Cl)C(=O)c1ccccc1 (stereo not given)
  EC50: > 80 µM (inactive)

## O=C(/C=C1\NC2(CCCC2)Cc2ccccc21)C(=O)N/N=C/c1ccc(O)c(O)c1
  EC50: 13.6 µM

## CCOC(=O)/C=c1\s/c(=C\c2ccc3cc(OC)ccc3c2)c(=O)n1CC(=O)NCC1CCCO1 (stereo not given)
  EC50: 17.4 µM

## COC(=O)c1cc(=O)n(CCc2ccc(OC)cc2)c(=Nc2ccc(F)c(Cl)c2)s1
  EC50: > 80 µM (inactive)

## Cc1ccc(N2C(=O)NC(=O)/C(=C/c3cnn(-c4ccc(C)cc4)c3)C2=O)cc1
  EC50: > 80 µM (inactive)

## Oc1ccc(CN2CCN(Cc3ccccc3)CC2)c2cccnc12
  EC50: > 80 µM (inactive)

## CN(C)C(=O)CSc1cccc2cccnc12
  EC50: > 80 µM (inactive)

## O=C(C#Cc1ccccc1)c1cccc([N+](=O)[O-])c1
  EC50: > 80 µM (inactive)

## COc1cc(C(=O)Nc2nc(-c3ccc(Cl)cc3)c(C)s2)ccc1OCC(=O)Nc1ccc(F)cc1
  EC50: > 80 µM (inactive)

## CCCCn1c(/C=N/Nc2nc3ccccc3[nH]2)nc2ccccc21
  EC50: > 80 µM (inactive)

## Cc1cc(C(=O)CCl)c(C)n1Cc1ccco1
  EC50: > 80 µM (inactive)

## CCCCCCCCCn1c2c(c(=N)c3c1CCC3)CCCC2
  EC50: inactive

## COc1ccc(N=c2oc3c(OC)cccc3cc2C(=O)NCc2ccco2)cc1OC
  EC50: > 80 µM (inactive)

## CCOC(=O)C1CCN(Cc2ccc(O)c3ncccc23)CC1
  EC50: > 80 µM (inactive)

## O=C(C#Cc1cccc([N+](=O)[O-])c1)c1ccccc1
  EC50: > 80 µM (inactive)

## COc1ccc(C(=O)Cn2c(C(=O)/C=C/c3ccccc3)nc3ccccc32)cc1
  EC50: > 80 µM (inactive)

## CC(C)N1C(=O)/C(=C/C=C/c2ccco2)C(=O)N(Cc2ccco2)C1=O
  EC50: > 80 µM (inactive)

## Cc1ccc(CN2CCN(/N=C/c3ccc(O)c(O)c3)CC2)cc1
  EC50: > 80 µM (inactive)

## Cc1ccc(NC(=O)c2ccc([N+](=O)[O-])o2)cc1S(=O)(=O)N1CCOCC1
  EC50: > 80 µM (inactive)

## Oc1c(N=Nc2ccccn2)ccc2ccccc12
  EC50: > 80 µM (inactive)

## O=C(Nc1nc(-c2ccc3ccccc3c2)cs1)c1ccc(N2C(=O)CCC2=O)cc1
  EC50: > 80 µM (inactive)

## Brc1ccccc1CN1CCN(Cc2c[nH]c3ccccc23)CC1
  EC50: > 80 µM (inactive)

## O=C(Nc1ccc(NC(=O)c2sc3ccccc3c2Cl)cc1Cl)c1ccco1
  EC50: inactive

## Cc1ccc(C)c(NC(=O)/C(C#N)=C/c2cn(CC(=O)NCc3ccco3)c3ccccc23)c1
  EC50: 6.33 µM

## Cn1c(-c2cccc(OCc3ccccc3)c2)nc2c1c(=O)[nH]c(=O)n2Cc1ccccc1
  EC50: > 80 µM (inactive)

## Cc1ccc2c(C(=O)CCl)c(C)[nH]c2c1
  EC50: > 80 µM (inactive)

## CC(C)N=c1scc(-c2cccs2)n1/N=C/c1ccc(O)c(O)c1O
  EC50: > 80 µM (inactive)

## O=C1C=CC(=O)N1c1ccc(N2CCCCC2)cc1
  EC50: > 80 µM (inactive)

## CCN1CSC(=S)N(Cc2ccccc2)C1
  EC50: > 80 µM (inactive)

## O=C(Nc1nc(-c2ccccn2)cs1)c1ccc(Cl)s1
  EC50: inactive

## COc1cc2nc(=S)n3[nH]c(CCn4nc(C)cc4C)nc3c2cc1OC
  EC50: > 80 µM (inactive)

## O=C(C[C@H]1C[C@H](C(=O)N2CCCCC2)[C@@]2(CCc3ccccc3)c3[nH]c4ccc(Cl)cc4c3CCN2C1=O)NCCC1=CCCCC1
  EC50: inactive

## O=C(Nc1ccc(-c2nc3cc(NC(=O)c4cccs4)ccc3o2)cc1)c1cccs1
  EC50: 6.4 µM

## O=C(N/N=C(\c1ccccc1)c1ccccn1)c1cccc([N+](=O)[O-])c1
  EC50: > 80 µM (inactive)

## Cc1cc(NC(=O)CCS(=O)(=O)c2nc(-c3ccccc3)cc(C(F)(F)F)n2)no1
  EC50: > 80 µM (inactive)

## COc1ccc(OC)c(Nc2nc(-c3ccc(O)c(O)c3)cs2)c1
  EC50: > 80 µM (inactive)

## O=[N+]([O-])c1ccc2nc(Cl)nc(-c3ccccc3)c2c1
  EC50: > 80 µM (inactive)

## CCN(CC)S(=O)(=O)c1cc(NC(=O)Cn2ncc(Cl)c(Cl)c2=O)ccc1C
  EC50: > 80 µM (inactive)

## CCc1cccc2sc(N3CCN(C(=O)c4ccc([N+](=O)[O-])o4)CC3)nc12
  EC50: > 80 µM (inactive)

## O=C(Nc1nc2ccc(F)cc2s1)c1ccccn1
  EC50: > 80 µM (inactive)

## C/C(=N\NC(=O)COc1ccccc1-c1ccccc1)c1ccccn1
  EC50: > 80 µM (inactive)

## CCCCCCCC(=O)Nc1ccc(C(=O)N/N=C/c2cccc([N+](=O)[O-])c2)cc1
  EC50: 17.5 µM

## COc1ccc2cc(C)c3nnc(SCC(=O)Nc4nc(-c5ccc(F)cc5)cs4)n3c2c1
  EC50: inactive
